The source of these data is US10774102B2, “Galactoside inhibitor of galectins” (Galecto Biotech AB, priority 2015, dated 2020).

pKd: −log10 of the molar value.

The target in this assay is galectin-3 (Homo sapiens (Human), UniProt P17931). As to the kind of experiment: Fluorescence anisotropy assay of galectin-3 affinity (compound inhibits galectin binding to a fluorescein tagged saccharide probe). As to conditions: high affinity probe, 50 nM galectin-3, 100 nM albumin. The protocol: 100 nM albumin was included as a carrier to prevent protein loss at such low concentration of galectin.
Sequence of galectin-3 (P17931 whole entry): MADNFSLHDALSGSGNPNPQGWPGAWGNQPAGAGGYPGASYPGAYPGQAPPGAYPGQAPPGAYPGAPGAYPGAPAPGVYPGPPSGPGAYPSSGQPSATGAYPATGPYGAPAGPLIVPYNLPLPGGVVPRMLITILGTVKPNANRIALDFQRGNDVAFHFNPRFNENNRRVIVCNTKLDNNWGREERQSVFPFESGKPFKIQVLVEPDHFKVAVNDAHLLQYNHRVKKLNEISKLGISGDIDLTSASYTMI
Regarding `[O-][S+](c1cncc(Br)c1)[C@H]1O[C@H](CO)[C@H](O)[C@H](n2cc(-c3cc(F)c(F)c(F)c3)nn2)[C@H]1O` (single isomer, unassigned; isomer 1) [Example 90, 5-Bromopyridin-3-yl 3-deoxy-3-[4-(3,4,5-trifluorophenyl)-1H-1,2,3-triazol-1-yl]-α-D-galactopyranosyl sulfoxide, isomer 1], the pKd was 7.55. The result for `[O-][S+](c1cncc(Cl)c1)[C@H]1OC(CO)[C@H](O)[C@H](n2cc(-c3cc(F)c(F)c(F)c3)nn2)C1O` (single isomer, unassigned; isomer 1) [Example 93, 5-Chloropyridin-3-yl 3-deoxy-3-[4-(3,4,5-trifluorophenyl)-1H-1,2,3-triazol-1-yl]-α-D-galactopyranosyl sulfoxide, isomer 1] reads 6.97; that for `[O-][S+](c1cncc(Br)c1)[C@H]1O[C@H](CO)[C@H](O)[C@H](n2cc(-c3cc(F)c(F)c(F)c3)nn2)[C@H]1O` (single isomer, unassigned; isomer 2) [Example 91, 5-Bromopyridin-3-yl 3-deoxy-3-[4-(3,4,5-trifluorophenyl)-1H-1,2,3-triazol-1-yl]-α-D-galactopyranosyl sulfoxide, isomer 2], 6.89; that for `[O-][S+](c1cncc(Cl)c1)[C@H]1OC(CO)[C@H](O)[C@H](n2cc(-c3cc(F)c(F)c(F)c3)nn2)C1O` (single isomer, unassigned; isomer 2) [Example 94, 5-Chloropyridin-3-yl 3-deoxy-3-[4-(3,4,5-trifluorophenyl)-1H-1,2,3-triazol-1-yl]-α-D-galactopyranosyl sulfoxide, isomer 2], 7.39.

As to `Cc1ccc(S[C@H]2O[C@H](CO)[C@H](O)[C@H](n3cc(-c4cc(F)c(F)c(F)c4)nn3)[C@H]2O)cc1C` [Example 1, 3,4-Dimethylphenyl 3-deoxy-3-[4-(3,4,5-trifluorophenyl)-1H-1,2,3-triazol-1-yl]-1-thio-α-D-galactopyranoside], the pKd was 6.82.

`OC[C@H]1O[C@H](Sc2cccc(Br)c2)[C@H](O)[C@@H](n2cc(-c3cc(F)c(F)c(F)c3)nn2)[C@H]1O` [Example 2, 3-Bromophenyl 3-deoxy-3-[4-(3,4,5-trifluorophenyl)-1H-1,2,3-triazol-1-yl]-1-thio-α-D-galactopyranoside] gave a pKd of 7.43. The compound `CCOc1cccc(S[C@H]2O[C@H](CO)[C@H](O)[C@H](n3cc(-c4cc(F)c(F)c(F)c4)nn3)[C@H]2O)c1` [Example 3, 3-Ethoxyphenyl 3-deoxy-3-[4-(3,4,5-trifluorophenyl)-1H-1,2,3-triazol-1-yl]-1-thio-α-D-galactopyranoside] gave a pKd of 6.38. `OC[C@H]1O[C@H](Sc2ccncc2)[C@H](O)[C@@H](n2cc(-c3cc(F)c(F)c(F)c3)nn2)[C@H]1O` [Example 4, 4-Pyridyl 3-deoxy-3-[4-(3,4,5-trifluorophenyl)-1H-1,2,3-triazol-1-yl]-1-thio-α-D-galactopyranoside] showed a pKd of 6.72. Compound `OC[C@H]1O[C@H](Sc2ccc(Cl)cc2Cl)[C@H](O)[C@@H](n2cc(-c3cc(F)c(F)c(F)c3)nn2)[C@H]1O` [Example 5, 2,4-Dichlorophenyl 3-deoxy-3-[4-(3,4,5-trifluorophenyl)-1H-1,2,3-triazol-1-yl]-1-thio-α-D-galactopyranoside] gave a negative-log Kd (pKd) of 6.19. The value for `COc1ccc(S[C@H]2OC(CO)[C@H](O)[C@H](n3cc(-c4cc(F)c(F)c(F)c4)nn3)C2O)cc1` (stereo partly drawn) [Example 7, 4-Methoxyphenyl 3-deoxy-3-[4-(3,4,5-trifluorophenyl)-1H-1,2,3-triazol-1-yl]-1-thio α-D-galactopyranoside] was 6.39. The result for `OC[C@H]1O[C@H](Sc2cccc(Cl)c2Cl)[C@H](O)[C@@H](n2cc(-c3cc(F)c(F)c(F)c3)nn2)[C@H]1O` [Example 8, 2,3-Dichlorophenyl 3-deoxy-3-[4-(3,4,5-trifluorophenyl)-1H-1,2,3-triazol-1-yl]-1-thio-α-D-galactopyranoside] reads 6.28; that for `OCC1O[C@H](SCc2ccccc2)C(O)[C@@H](n2cc(-c3cc(F)c(F)c(F)c3)nn2)[C@H]1O` (stereo partly drawn) [Example 10, Benzyl 3-deoxy-1-thio-3-[4-(3,4,5-trifluorophenyl)-1H-1,2,3-triazol-1-yl]-1-thio-α-D-galactopyranoside], 5.95. The result for `OCC1O[C@H](Sc2ccc3ccccc3c2)C(O)[C@@H](n2cc(-c3cc(F)c(F)c(F)c3)nn2)[C@H]1O` (stereo partly drawn) [Example 12, 2-Naphtyl 3-deoxy-3-[4-(3,4,5-trifluorophenyl)-1H-1,2,3-triazol-1-yl]-1-thio-α-D-galactopyranoside] reads 6.74; that for `Cc1cccc(S[C@H]2O[C@H](CO)[C@H](O)[C@H](n3cc(-c4cc(F)c(F)c(F)c4)nn3)[C@H]2O)c1` [Example 13, 3-Methylphenyl 3-deoxy-3-[4-(3,4,5-trifluorophenyl)-1H-1,2,3-triazol-1-yl]-1-thio-α-D-galactopyranoside], 6.62. The compound `OC[C@H]1O[C@H](Sc2cccc(C(F)(F)F)c2)[C@H](O)[C@@H](n2cc(-c3cc(F)c(F)c(F)c3)nn2)[C@H]1O` [Example 14, 3-(Trifluoromethyl)phenyl 3-deoxy-3-[4-(3,4,5-trifluorophenyl)-1H-1,2,3-triazol-1-yl]-1-thio-α-D-galactopyranoside] had a pKd of 6.89.

`OC[C@H]1O[C@H](Sc2ccc(Br)cc2)[C@H](O)[C@@H](n2cc(-c3cc(F)c(F)c(F)c3)nn2)[C@H]1O` [Example 15, 4-Bromophenyl 3-deoxy-3-[4-(3,4,5-trifluorophenyl)-1H-1,2,3-triazol-1-yl]-1-thio-α-D-galactopyranoside] gave a pKd of 6.28. The value for `OC[C@H]1O[C@H](Sc2cc(Cl)cc(Cl)c2)[C@H](O)[C@@H](n2cc(-c3cc(F)c(F)c(F)c3)nn2)[C@H]1O` [Example 16, 3,5-Dichlorophenyl 3-deoxy-3-[4-(3,4,5-trifluorophenyl)-1H-1,2,3-triazol-1-yl]-1-thio-α-D-galactopyranoside] was 7.10.

Compound `Cc1cccc(C)c1S[C@H]1O[C@H](CO)[C@H](O)[C@H](n2cc(-c3cc(F)c(F)c(F)c3)nn2)[C@H]1O` [Example 17, 2,6-Dimethylphenyl 3-deoxy-3-[4-(3,4,5-trifluorophenyl)-1H-1,2,3-triazol-1-yl]-1-thio-α-D-galactopyranoside] gave a pKd of 5.80. The value for `OCC1O[C@H](Sc2cccc3ccccc23)C(O)[C@@H](n2cc(-c3cc(F)c(F)c(F)c3)nn2)[C@H]1O` (stereo partly drawn) [Example 18, 1-Naphthyl 3-deoxy-1-thio-3-[4-(3,4,5-trifluorophenyl)-1H-1,2,3-triazol-1-yl]-1-thio-α-D-galactopyranoside] was 6.02; that for `OC[C@H]1O[C@H](Sc2cccc(Cl)c2)[C@H](O)[C@@H](n2cc(-c3cc(F)c(F)c(F)c3)nn2)[C@H]1O` [Example 19, 3-Chlorophenyl 3-deoxy-3-[4-(3,4,5-trifluorophenyl)-1H-1,2,3-triazol-1-yl]-1-thio-α-D-galactopyranoside] was 7.31.

For the compound `OC[C@H]1O[C@H](Sc2cccc(OC(F)(F)F)c2)[C@H](O)[C@@H](n2cc(-c3cc(F)c(F)c(F)c3)nn2)[C@H]1O` [Example 20, 3-(Trifluoromethoxy)phenyl 3-deoxy-3-[4-(3,4,5-trifluorophenyl)-1H-1,2,3-triazol-1-yl]-1-thio-α-D-galactopyranoside], the pKd is 6.30.

In turn, `OCC1O[C@H](Sc2ccccn2)C(O)[C@@H](n2cc(-c3cc(F)c(F)c(F)c3)nn2)[C@H]1O` (stereo partly drawn) [Example 21, 2-Pyridyl 3-deoxy-3-[4-(3,4,5-trifluorophenyl-1H-1,2,3-triazol-1-yl]-)-1-thio-α-D-galactopyranoside] showed a pKd of 6.29. The result for `OC[C@H]1O[C@H](Oc2ccc(Cl)c(Cl)c2)[C@H](O)[C@@H](n2cc(-c3cc(F)c(F)c(F)c3)nn2)[C@H]1O` [Example 22, 3,4-Dichlorophenyl 3-deoxy-3-[4-(3,4,5-trifluorophenyl)-1H-1,2,3-triazol-1-yl]-α-D-galactopyranoside] reads 6.31. For `OC[C@H]1O[C@H](Sc2ccc(Cl)cc2)[C@H](O)[C@@H](n2cc(-c3cc(F)c(F)c(F)c3)nn2)[C@H]1O` [Example 23, 4-Chlorophenyl 3-deoxy-3-[4-(3,4,5-trifluorophenyl)-1H-1,2,3-triazol-1-yl]-1-thio-α-D-galactopyranoside], the pKd was 6.70.

For `[O-][S+](c1ccc(Cl)c(Cl)c1)[C@H]1O[C@H](CO)[C@H](O)[C@H](n2cc(-c3cc(F)c(F)c(F)c3)nn2)[C@H]1O` (stereo partly drawn) [Example 24, 3,4-Dichlorophenyl 3-deoxy-3-[4-(3,4,5-trifluorophenyl)-1H-1,2,3-triazol-1-yl]-α-D-galactopyranosyl sulfoxide], the pKd was 8.00. The result for `O=S(=O)(c1ccc(Cl)c(Cl)c1)[C@H]1O[C@H](CO)[C@H](O)[C@H](n2cc(-c3cc(F)c(F)c(F)c3)nn2)[C@H]1O` [Example 25, 3,4-Dichlorophenyl 3-deoxy-3-[4-(3,4,5-trifluorophenyl)-1H-1,2,3-triazol-1-yl]-α-D-galactopyranosyl sulfone] reads 7.21; that for `[O-][S+](c1ccc(Cl)cc1)[C@H]1O[C@H](CO)[C@H](O)[C@H](n2cc(-c3cc(F)c(F)c(F)c3)nn2)[C@H]1O` (stereo partly drawn) [Example 26, 4-Chlorophenyl 3-deoxy-3-[4-(3,4,5-trifluorophenyl)-1H-1,2,3-triazol-1-yl]-α-D-galactopyranosyl sulfoxide], 6.11. `OC[C@H]1O[C@H](Sc2ccccc2)[C@H](O)[C@@H](n2cc(-c3cc(F)c(F)c(F)c3)nn2)[C@H]1O` [Example 27, Phenyl 3-deoxy-3-[4-(3,4,5-trifluorophenyl)-1H-1,2,3-triazol-1-yl]-1-thio-α-D-galactopyranoside] showed a pKd of 6.40. As for `OC[C@H]1O[C@H](Sc2ccc(F)c(Cl)c2)[C@H](O)[C@@H](n2cc(-c3cc(F)c(F)c(F)c3)nn2)[C@H]1O` [Example 28, 3-Chloro-4-fluorophenyl 3-deoxy-3-[4-(3,4,5-trifluorophenyl)-1H-1,2,3-triazol-1-yl]-1-thio-α-D-galactopyranoside], the pKd is 7.32.
